According to ChEMBL document CHEMBL1159366, “Antimycobacterial activity of phorbol esters from the fruits of Sapium indicum” (2003):
≈ marks a conversion by molar mass, not a printed value.

Tested on: Mycobacterium tuberculosis
Assay: Antimycobacterial activity against Mycobacterium tuberculosis H37Ra
Type: functional

Row | SMILES | MIC
1 | CNc1ccccc1C(=O)O[C@@H]1[C@@H](C)[C@]2(O)[C@@H]3C=C(C)C(=O)[C@H]3CC(CO)=C[C@H]2[C@@H]2C(C)(C)[C@]12OC(C)=O [SAPINTOXIN A] | 3.12 µg/mL (≈ 5.96 µM)
2 | NNC(=O)c1ccncc1 [ISONIAZID] | 0.04 µg/mL (≈ 0.292 µM)
3 | NC[C@H]1O[C@H](O[C@H]2[C@H](O)[C@@H](O[C@H]3O[C@H](CO)[C@@H](O)[C@H](N)[C@H]3O)[C@H](N)C[C@@H]2N)[C@H](O)[C@@H](O)[C@@H]1O.O=S(=O)(O)O [KANAMYCIN SULFATE] | 2 µg/mL
4 | CNc1ccccc1C(=O)O[C@@H]1[C@@H](C)[C@]2(O)[C@@H]3C=C(C)C(=O)[C@@H]3CC(C)=C[C@H]2[C@@H]2C(C)(C)[C@]12OC(C)=O | 200 µg/mL (≈ 394 µM)
5 | CNc1ccccc1C(=O)O[C@@H]1[C@@H](C)[C@]2(O)[C@@H]3C=C(C)C(=O)[C@@H]3[C@H](O)C(CO)=C[C@H]2[C@@H]2C(C)(C)[C@]12OC(C)=O | 25 µg/mL (≈ 46.3 µM)
6 | CNc1ccccc1C(=O)O[C@@H]1[C@@H](C)[C@]2(O)[C@@H]3C=C(C)C(=O)[C@@H]3CC(CO)=C[C@H]2[C@@H]2C(C)(C)[C@]12OC(C)=O | > 200 µg/mL
7 | CNc1ccccc1C(=O)O[C@@H]1[C@@H](C)[C@]2(O)[C@@H]3C=C(C)C(=O)[C@H]3[C@H](O)C(CO)=C[C@H]2[C@@H]2C(C)(C)[C@]12OC(C)=O [SAPINTOXIN B] | 12.5 µg/mL (≈ 23.2 µM)
8 | CNc1ccccc1C(=O)O[C@@H]1[C@@H](C)[C@]2(O)[C@@H]3C=C(C)C(=O)[C@H]3[C@H](O)C(C)=C[C@H]2[C@@H]2C(C)(C)[C@]12OC(C)=O [SAPINTOXIN C] | 25 µg/mL (≈ 47.7 µM)
9 | CNc1ccccc1C(=O)O[C@@H]1[C@@H](C)[C@]2(O)[C@@H]3C=C(C)C(=O)[C@H]3CC(C)=C[C@H]2[C@@H]2C(C)(C)[C@]12OC(C)=O | 50 µg/mL (≈ 98.5 µM)
10 | CNc1ccccc1C(=O)O[C@@H]1[C@@H](C)[C@]2(O)[C@@H]3C=C(C)C(=O)[C@@H]3[C@H](O)C(C)=C[C@H]2[C@@H]2C(C)(C)[C@]12OC(C)=O | > 200 µg/mL
